From ChEMBL document CHEMBL3227974, “Multivariate analysis and quantitative structure-activity relationships. Inhibition of dihydrofolate reductase and thymidylate synthetase by quinazolines” (J Med Chem, 1979)

How the values were obtained:
[1] = target: T1, Thymidylate synthase (Lactobacillus casei) (UniProt P00469); test: Inhibition of thymidylate synthetase in Lactobacillus casei; conditions: Lacticaseibacillus casei
T1 sequence (whole entry): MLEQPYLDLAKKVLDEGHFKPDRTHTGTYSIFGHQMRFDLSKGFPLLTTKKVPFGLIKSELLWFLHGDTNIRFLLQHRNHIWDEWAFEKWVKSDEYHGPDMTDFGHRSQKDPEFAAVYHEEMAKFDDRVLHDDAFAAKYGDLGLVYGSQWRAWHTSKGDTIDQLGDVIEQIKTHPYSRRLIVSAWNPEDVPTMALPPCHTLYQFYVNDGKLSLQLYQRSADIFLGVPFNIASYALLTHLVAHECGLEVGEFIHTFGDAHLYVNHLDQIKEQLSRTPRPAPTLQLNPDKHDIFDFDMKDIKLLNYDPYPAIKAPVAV

[2] = target: Thymidylate synthase (Mus musculus) (UniProt P07607); test: Inhibition of thymidylate synthetase in mouse L1210S cells; type: cell-based
[3] = target: T2, Dihydrofolate reductase (Mus musculus) (UniProt P00375); test: Inhibition of dihydrofolate reductase in mouse L1210R cells; type: cell-based
T2 sequence (whole entry): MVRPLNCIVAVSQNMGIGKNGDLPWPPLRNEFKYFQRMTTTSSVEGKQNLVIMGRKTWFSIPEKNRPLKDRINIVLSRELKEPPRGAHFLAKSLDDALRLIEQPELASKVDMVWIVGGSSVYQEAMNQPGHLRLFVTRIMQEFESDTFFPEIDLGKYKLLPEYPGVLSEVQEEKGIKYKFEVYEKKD

[4] = target: T3, Dihydrofolate reductase (Homo sapiens) (UniProt P00374)
T3 sequence (whole entry): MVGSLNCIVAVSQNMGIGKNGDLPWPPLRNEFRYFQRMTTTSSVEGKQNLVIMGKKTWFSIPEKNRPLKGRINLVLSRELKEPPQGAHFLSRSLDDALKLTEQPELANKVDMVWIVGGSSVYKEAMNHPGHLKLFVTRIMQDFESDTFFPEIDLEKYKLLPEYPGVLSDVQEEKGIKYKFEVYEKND
Description: Inhibition of dihydrofolate reductase in human acute lymphocytic leukemia cells

Thymidylate synthase (Mus musculus), sequence (P07607 whole entry, looked up): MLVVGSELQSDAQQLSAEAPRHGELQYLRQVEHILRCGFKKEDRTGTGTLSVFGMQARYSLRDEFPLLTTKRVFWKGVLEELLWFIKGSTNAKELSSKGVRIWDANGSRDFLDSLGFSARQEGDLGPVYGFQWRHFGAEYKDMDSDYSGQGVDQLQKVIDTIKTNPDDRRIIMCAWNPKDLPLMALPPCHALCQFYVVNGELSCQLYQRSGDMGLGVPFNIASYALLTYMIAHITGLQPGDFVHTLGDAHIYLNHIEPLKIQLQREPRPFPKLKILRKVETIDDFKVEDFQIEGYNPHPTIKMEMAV

Compound | log(1/I50) [1] | log(1/I50) [2] | log(1/I50) [3] | log(1/I50) [4]
Nc1nc(O)c2cc(CN(C=O)c3ccc(C(=O)NC(CCC(=O)O)C(=O)O)cc3)ccc2n1 (stereo not drawn) | 5.52 | 7 | – | –
Cc1c(CNc2ccc(C(=O)NC(CC(=O)O)CC(=O)O)cc2)ccc2nc(N)nc(N)c12 | – | – | 9.15 | 8.17
Nc1nc(N)c2cc(CNc3ccc(Cl)c(Cl)c3)ccc2n1 | – | – | 8.05 | 8.42
CCOC(=O)CCC(NC(=O)c1ccc(CNc2ccc3nc(N)nc(O)c3c2)cc1)C(=O)OCC (stereo not drawn) | 4.46 | 6 | – | 5.65
Nc1nc(O)c2cc(COc3ccc(C(=O)NC(CCC(=O)O)C(=O)O)cc3)ccc2n1 (stereo not drawn) | 4 | 5 | – | –
Cc1c(CNc2ccc(C(=O)NC(CCC(=O)O)C(=O)O)cc2)ccc2nc(N)nc(O)c12 (stereo not drawn) | 4.9 | 7 | – | –
Nc1nc(N)c2cc(Oc3ccc(CNc4ccc(C(=O)NC(CCC(=O)O)C(=O)O)cc4)cc3)ccc2n1 (stereo not drawn) | – | – | 7.71 | 7.8
Cc1c(CN(N=O)c2ccc(Cl)c(Cl)c2)ccc2nc(N)nc(N)c12 | – | – | – | 8
CCOC(=O)CCC(NC(=O)c1ccc(NCc2ccc3nc(N)nc(N)c3c2)cc1)C(=O)OCC (stereo not drawn) | 4 | 4 | – | –
Cc1c(NCc2ccc(C(=O)O)cc2)ccc2nc(N)nc(O)c12 | 4.05 | 4.05 | – | –
CN(Cc1ccc2nc(N)nc(S)c2c1)c1ccc(C(=O)O)cc1 | 4.12 | 5.12 | – | –
Nc1nc(O)c2cc(CCc3ccc(C(=O)NC(CCC(=O)O)C(=O)O)cc3)ccc2n1 (stereo not drawn) | 5.12 | 5.3 | – | 6.31
Cc1c(CNc2ccc(C(=O)NC(CCC(=O)O)C(=O)O)cc2)ccc2nc(N)nc(N)c12 (stereo not drawn) | – | – | – | 8.78
Nc1nc(N)c2cc(CNc3ccc(Cl)cc3)ccc2n1 | – | – | 8.3 | 8.22
Nc1nc(N)c2c(Cl)c(CNc3ccc(C(=O)NC(CCC(=O)O)C(=O)O)cc3)ccc2n1 (stereo not drawn) | – | – | 9.05 | 9.11
CCOC(=O)CCC(NC(=O)c1ccc(N(C)Cc2ccc3nc(N)nc(O)c3c2)cc1)C(=O)OCC (stereo not drawn) | 4.12 | 5.12 | – | –
Nc1nc(N)c2cc(CNc3ccc(Cl)c(C(F)(F)F)c3)ccc2n1 | – | – | – | 8.4
Nc1nc(N)c2cc(NCc3ccc(C(=O)NC(CC(=O)O)C(=O)O)cc3)ccc2n1 (stereo not drawn) | – | – | 7.36 | –
CCOC(=O)c1ccc(NCc2ccc3nc(N)nc(N)c3c2C)cc1 | 4 | 4 | – | –
Nc1nc(=O)c2cc(NCc3ccc(C(=O)NC(CCC(=O)O)C(=O)O)cc3)ccc2[nH]1 (stereo not drawn) | 5 | 6.3 | – | 5.78
CN(Cc1ccc2nc(N)nc(O)c2c1)c1ccc(C(=O)O)cc1 | 4.12 | 4.7 | – | –
Nc1nc(N)c2cc(CN(C=O)c3ccc(C(=O)NC(CCC(=O)O)C(=O)O)cc3)ccc2n1 (stereo not drawn) | – | – | – | 8.22

Compound | log(1/I50) [1] | log(1/I50) [2] | log(1/I50) [3] | log(1/I50) [4]
CCOC(=O)c1ccc(NCc2ccc3nc(N)nc(N)c3c2)cc1 | 4 | 4 | – | –
Cc1c(CNc2ccc(Cl)c(C(=O)NC(CCC(=O)O)C(=O)O)c2)ccc2nc(N)nc(N)c12 (stereo not drawn) | – | – | 8.68 | 8.52
Nc1nc(N)c2c(Cl)c(CNc3ccc(Cl)c(Cl)c3)ccc2n1 | – | – | 8.7 | 8.96
Nc1nc(N)c2cc(CNc3ccc(Cl)c(C(=O)NC(CCC(=O)O)C(=O)O)c3)ccc2n1 (stereo not drawn) | – | – | 8.03 | 6.7
Cc1c(CNc2ccc(Cl)c(Cl)c2)ccc2nc(N)nc(N)c12 | – | – | – | 8.59
Nc1nc(N)c2cc(CNc3cccc(Cl)c3)ccc2n1 | – | – | 8 | 8
CN(Cc1ccc2nc(N)nc(N)c2c1)c1ccc(Cl)c(Cl)c1 | – | – | – | 8.3
CCOC(=O)c1ccc(CNc2ccc3nc(N)nc(O)c3c2C)cc1 | 4.05 | 4 | – | –
Nc1nc(N)c2cc(CN(C=O)c3ccc(C(=O)O)cc3)ccc2n1 | 4.12 | 4 | – | –
CCOC(=O)c1ccc(CNc2ccc3nc(N)nc(O)c3c2)cc1 | 4.3 | 4 | – | 5.49
CCOC(=O)CCC(NC(=O)c1ccc(SCc2ccc3nc(N)nc(O)c3c2)cc1)C(=O)OCC (stereo not drawn) | 5.1 | 7 | – | 5.05
COc1cc(NCc2ccc3nc(N)nc(N)c3c2)cc(OC)c1OC | – | – | – | 8.22
Nc1nc(S)c2cc(CNc3ccc(C(=O)O)cc3)ccc2n1 | 4 | 4 | – | –
Nc1nc(N)c2c(Cl)c(CNc3ccc(C(=O)NC(CC(=O)O)C(=O)O)cc3)ccc2n1 (stereo not drawn) | – | – | 9.21 | 9.35
Nc1nc(N)c2cc(CNc3cccc(Br)c3)ccc2n1 | – | – | 8.64 | 8.66
Nc1nc(N)c2cc(CNc3ccc(C(=O)NC(CC(=O)O)C(=O)O)cc3Cl)ccc2n1 (stereo not drawn) | – | – | 9.13 | 8.82
CCOC(=O)CCC(NC(=O)c1ccc(CNc2ccc3nc(N)nc(O)c3c2C)cc1)C(=O)OCC (stereo not drawn) | 4 | 5.12 | – | 5.1
CC(=O)N(Cc1ccc2nc(N)nc(N)c2c1)c1ccc(Cl)c(Cl)c1 | – | – | – | 7.3
CN(Cc1ccc2nc(N)nc(N)c2c1)c1ccc(C(=O)NC(CC(=O)O)C(=O)O)cc1 (stereo not drawn) | – | – | 8.66 | 8.69
CCOC(=O)c1ccc(CNc2ccc3nc(N)nc(N)c3c2C)cc1 | 5 | 4 | 8 | –
Nc1nc(N)c2cc(CNc3ccc(C(=O)NC(C(=O)O)C(=O)O)cc3)ccc2n1 | – | – | 8.81 | 9.1
Nc1nc(N)c2cc(CNc3ccc(C(=O)NC(CCC(=O)O)C(=O)O)cc3)ccc2n1 (stereo not drawn) | 4 | 5 | – | –

Compound | log(1/I50) [1] | log(1/I50) [2] | log(1/I50) [3] | log(1/I50) [4]
Cc1c(NCc2ccc(C(=O)NC(CCC(=O)O)C(=O)O)cc2)ccc2nc(N)nc(O)c12 (stereo not drawn) | 4.3 | 5.12 | – | 6.12
CCOC(=O)CCC(NC(=O)c1ccc(NCc2ccc3nc(N)nc(N)c3c2C)cc1)C(=O)OCC (stereo not drawn) | 4.3 | 5.12 | – | 8.49
CN(Cc1ccc2nc(N)nc(O)c2c1)c1ccc(C(=O)NC(CCC(=O)O)C(=O)O)cc1 (stereo not drawn) | 6.4 | 7.3 | – | 6.22
Cc1c(NCc2ccc(C(=O)NC(CCC(=O)O)C(=O)O)cc2)ccc2nc(N)nc(N)c12 (stereo not drawn) | 5.6 | 6.6 | – | 9.07
Nc1nc(=O)c2cc(CSc3ccc(C(=O)NC(CCC(=O)O)C(=O)O)cc3)ccc2[nH]1 (stereo not drawn) | 5.6 | 6 | – | 4.9
CCOC(=O)CCC(NC(=O)c1ccc(CNc2ccc3nc(N)nc(N)c3c2)cc1)C(=O)OCC (stereo not drawn) | 5 | 6 | – | 7.66
Nc1nc(N)c2cc(CNc3ccc(C(=O)NC(CC(=O)O)CC(=O)O)cc3)ccc2n1 | – | – | 8.14 | 8.25
CCOC(=O)c1ccc(NCc2ccc3nc(N)nc(O)c3c2)cc1 | 4 | 4 | – | 4.66
Nc1nc(N)c2cc(CNc3cc(C(=O)NC(CC(=O)O)C(=O)O)ccc3Cl)ccc2n1 (stereo not drawn) | – | – | 8.54 | 8.52
Nc1nc(O)c2cc(CNc3ccc(C(=O)O)cc3)ccc2n1 | 4 | 4 | – | –
COc1cc(NCc2ccc3nc(N)nc(N)c3c2C)cc(OC)c1OC | – | – | 8.92 | 8.89
Nc1nc(N)c2cc(CNc3ccc(Cl)c(C(=O)NC(CC(=O)O)C(=O)O)c3)ccc2n1 (stereo not drawn) | – | – | 8.37 | 7.92
Nc1nc(N)c2cc(CNc3ccc(C(=O)NC(CC(=O)O)C(=O)O)cc3)ccc2n1 (stereo not drawn) | – | – | 8.76 | 8.94
Cc1c(CNc2cccc(Br)c2)ccc2nc(N)nc(N)c12 | – | – | 8.82 | 8.82
Nc1nc(N)c2cc(CN(N=O)c3ccc(Cl)c(Cl)c3)ccc2n1 | – | – | 8 | 8
CCOC(=O)CCC(NC(=O)c1ccc(NCc2ccc3nc(N)nc(O)c3c2)cc1)C(=O)OCC (stereo not drawn) | 4.15 | 6.6 | – | –
Nc1nc(O)c2cc(NCc3ccc(C(=O)O)cc3)ccc2n1 | 4 | 4 | – | –
Nc1nc(N)c2cc(NCc3ccc(C(=O)NC(CCC(=O)O)C(=O)O)cc3)ccc2n1 (stereo not drawn) | 5.3 | 6.6 | – | 8
Cc1c(CNc2ccc(C(=O)NC(CC(=O)O)C(=O)O)cc2)ccc2nc(N)nc(N)c12 (stereo not drawn) | 5 | 6 | 8.87 | 8.9
NC(=O)CCC(NC(=O)c1ccc(NCc2ccc3nc(N)nc(N)c3c2)cc1)C(=O)O (stereo not drawn) | – | – | 9.66 | 10.1
Nc1nc(N)c2cc(Oc3ccc(CNc4ccc(C(=O)NC(CC(=O)O)C(=O)O)cc4)cc3)ccc2n1 (stereo not drawn) | – | – | 7.67 | 7.77
